Source: US8871280B1, “Compositions and methods for treating fungal activity in plants or soil” (The United States of America, as represented by the …, priority 2011, dated 2014)

Columns and labels:
Rhizoctonia solani [1] = experiment: Filter disk fumigation method, mycelial growth inhibition on PDA; assay type: cell-based, Rhizoctonia solani AG-4, isolate Rs 23A; conditions: for Fumig1 % inhibition: fumigation experiment 1; for Fumig2 % inhibition: fumigation experiment 2
Method: (§1) Fungal isolate and preparation of inoculum: Rhizoctonia solani AG-4, isolate Rs 23A is a highly virulent pathogenic isolate which infects many vegetables, ornamentals and turfgrasses (Lewis, J. A., and G. C. Papavizas, Soil Biology and Biochemistry, 9:195-201 (1987)). The fungus was grown in potato dextrose agar (PDA) plates and fungal plugs from the freshly growing mycelium were mixed with moist sterilized cracked wheat in a 2 L flask for 15 days in dark at 22° C. (Lakshman, D. K., et al., Proceedings of the National Academy of Science, USA, 95: 6425-6429 (1998)). The infested wheat was air dried in a sterile hood for 3 days, blended in a homogenizer and sieved through a mesh and stored at 2° C. before soil inoculation. A dose response of the inocula was carried out by thoroughly mixing using 0.25, 0.5, 0.75, 1.0, 1.25 and 1.50 g inoculums per Kg dry weight potting soil plus sterile water to maintain 25-30% moisture and incubating at room temperature for two weeks before sowing cucumber (cv muncher) seeds with the infested soil. The percent germination and post-emergence damping off of cucumber seedlings were recorded. The lowest inoculums dose that induced 100% postemergence damping off was estimated to be 1 to 1.25 g/Kg soil for inocula prepared over the span of the experiments. For soil fumigation with plant extracts (PEs), each time the minimum inoculum dose giving rise to 100% damping off was used.
In the second protocol, the chemical was kept not in direct contact with the fungus and we hypothesized that the plant extract will most likely influence the growth of the pathogen by fumigation action. In this approach, three sterile 15 mm filter paper (Whatman International Ltd, Maidstone, UK) disks were placed on the edge of each of three plates on the PDA. Each disk was impregnated in the center with various amounts (5-50 ul/disk) of the test solution/suspension. For negative control, only soybean oil was placed in the filter disk. […] The average radial growth was calculated and the experiment was repeated one more time. Percent growth inhibition was calculated as reported for poison bed assay.

Rhizoctonia solani [2] = experiment: Poison food technique (contact action), mycelial growth inhibition in PDA; assay type: cell-based, Rhizoctonia solani AG-4, isolate Rs 23A; conditions: for PoisonB1 % inhibition: poison bed experiment 1; for PoisonB2 % inhibition: poison bed experiment 2
Method: as §1
In vitro bioassays: Two in vitro bioassay methods were used to investigate the mycelial growth inhibitory potentials of PEs. In the poison food technique, test chemical/plant extract was mixed at concentrations of 15, 30, 45, 60, 75, and 150 μl per 20 ml autoclaved PDA at 50° C., poured on three sterile disposable plastic plates (100×15 mm, Fisherbrand) at 20 ml/plate and cooled to room temperature to solidify (Dhingra, O.D., and J. B. Sinclair, 1995, Basic Plant Pathology Methods, 2nd Edition, Lewis Publishers, Boca Raton and London). […] Each plate was seeded in the center with a 5 mm diameter agar disk of the freshly grown Rhizoctonia pathogen, mycelial side facing the medium, and sealed with stretched Parafilm® M (Fisher Scientific). The plates were incubated in the dark at room temperature and when the pathogen reached to the edge of the plates in the control treatment (soybean oil), radial measurement of fungal growth in plates treated with PEs were recorded by taking three measurements from each plate. The experiment was repeated one more time. The percent mycelial growth inhibition (MGI) due to PE was calculated using the following formula: […] where dc=Avg. radial growth in mm of pathogen in control plate; dt=avg. radial growth in mm of pathogen in treated plate.

Rhizoctonia solani [3] = experiment: Fungicidal vs fungistatic potential (regrowth of mycelial plugs on fresh PDA, 7 days); assay type: cell-based, Rhizoctonia solani AG-4, isolate Rs 23A; conditions: fumigation
Method: The fungicidal and fungistatic potential of the PEs were determined by the method described by Garber and Houstan (Garber R. H., and B. R. Houston, Phytopathology, 49: 449-450 (1959)). In brief, three 5 mm diameter plugs were taken from the peripheral mycelial growth from each plate and placed in a fresh PDA plate. Following incubation at room temperature for 7 days, observations were recorded for new mycelial growth (fungistatic) or no mycelial growth (fungicidal). As control, peripheral mycelial plugs from soybean oil amended PDA plates were checked for fresh mycelial growth in fresh PDA plates.

cucumber seeds = experiment: Greenhouse assay of seed germination and phytotoxicity, soil treated with plant extract alone; conditions: for Avg. seed germination (+ PE only) / % Seed germination (+ PE only): cucumber, soil amended with 0.3% PE, no pathogen; for Avg. seed germination (+ PE only): 12 seeds sown per pot
Method: Soil treatment: For each treatment, 300 g of dry greenhouse soli (Pro-mix, Premier Horticulture LTD, Red Hill, Pa.) was thoroughly mixed with Rhizoctonia inoculum and incubated for 15 days as described above. […] The infested soil treated with only the carrier solution served as an untreated control. Following the treatment, the soil was thoroughly stirred to mix the contents and incubated in a double polythene bag closed tightly in the dark at room temperature for four days for fumigation to occur. Following the incubation, the bag was opened to allow as much PE to dissipate as possible. This was done by sprinkling the surface soil with sterile water every other day, and stirring the soil once every day for seven days. For assay of effect on seed germination and phytotoxicity of the plant extracts, soil was treated with plant extract formulations alone.
Greenhouse studies: Treated soil from each treatment was distributed to 4-inch plastic pots into which 12 seeds of cucumbers (95-100% germination) were sown and lightly watered to keep soil moist. The treatments were color coded and pots were randomized across treatment. All plants were kept in a greenhouse between 20° C. (night) to 26° C. (day) with 14 h of light. There were three pots per treatment in each experiment, and the experiment was repeated three times. As positive control, a broad spectrum popular soil fungicide Banrot® 40 WP (The Scotts Company, Ohio) was used following manufacturer's recommendation to control the disease. Total number of seedlings without any sign of damping off in each pot was recorded and percentage of disease suppression were calculated four weeks after sowing cucumber seeds.

Rhizoctonia solani [4] = experiment: Greenhouse suppression of damping off of cucumber seedlings in R. solani infested soil amended with plant extract; assay type: in vivo, Rhizoctonia solani AG-4, isolate Rs 23A; conditions: cucumber damping off, soil amendment at 0.3% (v/w), four weeks after sowing

In the case of `Cc1ccc(C(C)C)cc1O` [Carvacrol], the Fumig1 % inhibition (Rhizoctonia solani [1]; amount oil 15 μL/20 mL plate) is reported as 88%, the Fumig2 % inhibition (Rhizoctonia solani [1]; amount oil 15 μL/20 mL plate) is reported as 87% and the Fumig1 % inhibition (Rhizoctonia solani [1]; amount oil 30 μL/20 mL plate) is reported as 94%. For the same compound, the Fumig2 % inhibition (Rhizoctonia solani [1]; amount oil 30 μL/20 mL plate) was 91%, the Fumig1 % inhibition (Rhizoctonia solani [1]; amount oil 45 μL/20 mL plate) was 100% and the Fumig2 % inhibition (Rhizoctonia solani [1]; amount oil 45 μL/20 mL plate) was 91%. It also gave a Fumig1 % inhibition (Rhizoctonia solani [1]; amount oil 60 μL/20 mL plate) of 100%, a Fumig2 % inhibition (Rhizoctonia solani [1]; amount oil 60 μL/20 mL plate) of 93% and a Fumig1 % inhibition (Rhizoctonia solani [1]; amount oil 75 μL/20 mL plate) of 99%. It also gave a Fumig2 % inhibition (Rhizoctonia solani [1]; amount oil 75 μL/20 mL plate) of 96%, a Fumig1 % inhibition (Rhizoctonia solani [1]; amount oil 150 μL/20 mL plate) of 100% and a Fumig2 % inhibition (Rhizoctonia solani [1]; amount oil 150 μL/20 mL plate) of 100%. For the same compound, the PoisonB1 % inhibition (Rhizoctonia solani [2]; amount oil 15 μL/20 mL plate) was 100%, the PoisonB2 % inhibition (Rhizoctonia solani [2]; amount oil 15 μL/20 mL plate) was 100% and the PoisonB1 % inhibition (Rhizoctonia solani [2]; amount oil 30 μL/20 mL plate) was 100%. For the same compound, the PoisonB2 % inhibition (Rhizoctonia solani [2]; amount oil 30 μL/20 mL plate) was 100%, the PoisonB1 % inhibition (Rhizoctonia solani [2]; amount oil 45 μL/20 mL plate) was 100% and the PoisonB2 % inhibition (Rhizoctonia solani [2]; amount oil 45 μL/20 mL plate) was 100%. For the same compound, the PoisonB1 % inhibition (Rhizoctonia solani [2]; amount oil 60 μL/20 mL plate) was 100%, the PoisonB2 % inhibition (Rhizoctonia solani [2]; amount oil 60 μL/20 mL plate) was 100% and the PoisonB1 % inhibition (Rhizoctonia solani [2]; amount oil 75 μL/20 mL plate) was 100%. It also gave a PoisonB2 % inhibition (Rhizoctonia solani [2]; amount oil 75 μL/20 mL plate) of 100%, a PoisonB1 % inhibition (Rhizoctonia solani [2]; amount oil 150 μL/20 mL plate) of 100% and a PoisonB2 % inhibition (Rhizoctonia solani [2]; amount oil 150 μL/20 mL plate) of 100%. The “Effect (fumigation)” value (Rhizoctonia solani [3]; amount oil 15 μL/20 mL plate) was “S”, the “Effect (fumigation)” value (Rhizoctonia solani [3]; amount oil 30 μL/20 mL plate) was “S” and the “Effect (fumigation)” value (Rhizoctonia solani [3]; amount oil 45 μL/20 mL plate) was “S”. The “Effect (fumigation)” value (Rhizoctonia solani [3]; amount oil 60 μL/20 mL plate) was “S”, the “Effect (fumigation)” value (Rhizoctonia solani [3]; amount oil 75 μL/20 mL plate) was “S” and the “Effect (fumigation)” value (Rhizoctonia solani [3]; amount oil 150 μL/20 mL plate) was “S”. For the same compound, the “Avg. seed germination (+ PE only)” value (cucumber seeds) was 4.00, the “% Seed germination (+ PE only)” value (cucumber seeds) was 33.33% and the “Phytotoxicity (cucumber seed germination and seedling growth), in words” value (cucumber seeds; greenhouse, soil amendment) was “slightly inhibited”. For the same compound, the “% Disease suppression (+ PE + R. solani)” value (Rhizoctonia solani [4]) was 47.25%.
`CC(C)=CCC/C(C)=C/CO` [Geraniol] gave a Fumig1 % inhibition (Rhizoctonia solani [1]; amount oil 15 μL/20 mL plate) of 51%, a Fumig2 % inhibition (Rhizoctonia solani [1]; amount oil 15 μL/20 mL plate) of 15% and a Fumig1 % inhibition (Rhizoctonia solani [1]; amount oil 30 μL/20 mL plate) of 56%. For the same compound, the Fumig2 % inhibition (Rhizoctonia solani [1]; amount oil 30 μL/20 mL plate) was 34%, the Fumig1 % inhibition (Rhizoctonia solani [1]; amount oil 45 μL/20 mL plate) was 62% and the Fumig2 % inhibition (Rhizoctonia solani [1]; amount oil 45 μL/20 mL plate) was 31%. For the same compound, the Fumig1 % inhibition (Rhizoctonia solani [1]; amount oil 60 μL/20 mL plate) was 66%, the Fumig2 % inhibition (Rhizoctonia solani [1]; amount oil 60 μL/20 mL plate) was 54% and the Fumig1 % inhibition (Rhizoctonia solani [1]; amount oil 75 μL/20 mL plate) was 73%. For the same compound, the Fumig2 % inhibition (Rhizoctonia solani [1]; amount oil 75 μL/20 mL plate) was 67%, the Fumig1 % inhibition (Rhizoctonia solani [1]; amount oil 150 μL/20 mL plate) was 77% and the Fumig2 % inhibition (Rhizoctonia solani [1]; amount oil 150 μL/20 mL plate) was 61%. The PoisonB1 % inhibition (Rhizoctonia solani [2]; amount oil 15 μL/20 mL plate) was 100%, the PoisonB2 % inhibition (Rhizoctonia solani [2]; amount oil 15 μL/20 mL plate) was 100% and the PoisonB1 % inhibition (Rhizoctonia solani [2]; amount oil 30 μL/20 mL plate) was 100%. The PoisonB2 % inhibition (Rhizoctonia solani [2]; amount oil 30 μL/20 mL plate) was 100%, the PoisonB1 % inhibition (Rhizoctonia solani [2]; amount oil 45 μL/20 mL plate) was 100% and the PoisonB2 % inhibition (Rhizoctonia solani [2]; amount oil 45 μL/20 mL plate) was 100%. For the same compound, the PoisonB1 % inhibition (Rhizoctonia solani [2]; amount oil 60 μL/20 mL plate) was 100%, the PoisonB2 % inhibition (Rhizoctonia solani [2]; amount oil 60 μL/20 mL plate) was 100% and the PoisonB1 % inhibition (Rhizoctonia solani [2]; amount oil 75 μL/20 mL plate) was 100%. It also gave a PoisonB2 % inhibition (Rhizoctonia solani [2]; amount oil 75 μL/20 mL plate) of 100%, a PoisonB1 % inhibition (Rhizoctonia solani [2]; amount oil 150 μL/20 mL plate) of 100% and a PoisonB2 % inhibition (Rhizoctonia solani [2]; amount oil 150 μL/20 mL plate) of 100%. The “Effect (fumigation)” value (Rhizoctonia solani [3]; amount oil 15 μL/20 mL plate) was “S”, the “Effect (fumigation)” value (Rhizoctonia solani [3]; amount oil 30 μL/20 mL plate) was “S” and the “Effect (fumigation)” value (Rhizoctonia solani [3]; amount oil 45 μL/20 mL plate) was “S”. For the same compound, the “Effect (fumigation)” value (Rhizoctonia solani [3]; amount oil 60 μL/20 mL plate) was “S”, the “Effect (fumigation)” value (Rhizoctonia solani [3]; amount oil 75 μL/20 mL plate) was “S” and the “Effect (fumigation)” value (Rhizoctonia solani [3]; amount oil 150 μL/20 mL plate) was “S”. The “Avg. seed germination (+ PE only)” value (cucumber seeds) was 11.33, the “% Seed germination (+ PE only)” value (cucumber seeds) was 94.41% and the “% Disease suppression (+ PE + R. solani)” value (Rhizoctonia solani [4]) was 77.75%.
